Laboratory results as given in US20070184135A1, “Morinda citrifolia-based formulation 5-LOX and 15-LOX” (priority 2003, published 2007).
Several values for one entry are separate records, joined by “and”; a condition that tells them apart may be missing. Identical values can stand only once.

Molecular target: T1, 5-Lipoxygenase (Homo sapiens, UniProt P09917)
T1 construct: Human peripheral blood mononuclear leukocytes (PBML) were isolated through a Ficoll-Paque density gradient; endogenous in cells; host or cells: human peripheral blood mononuclear leukocytes (PBML)
T1 sequence (P09917 1-674): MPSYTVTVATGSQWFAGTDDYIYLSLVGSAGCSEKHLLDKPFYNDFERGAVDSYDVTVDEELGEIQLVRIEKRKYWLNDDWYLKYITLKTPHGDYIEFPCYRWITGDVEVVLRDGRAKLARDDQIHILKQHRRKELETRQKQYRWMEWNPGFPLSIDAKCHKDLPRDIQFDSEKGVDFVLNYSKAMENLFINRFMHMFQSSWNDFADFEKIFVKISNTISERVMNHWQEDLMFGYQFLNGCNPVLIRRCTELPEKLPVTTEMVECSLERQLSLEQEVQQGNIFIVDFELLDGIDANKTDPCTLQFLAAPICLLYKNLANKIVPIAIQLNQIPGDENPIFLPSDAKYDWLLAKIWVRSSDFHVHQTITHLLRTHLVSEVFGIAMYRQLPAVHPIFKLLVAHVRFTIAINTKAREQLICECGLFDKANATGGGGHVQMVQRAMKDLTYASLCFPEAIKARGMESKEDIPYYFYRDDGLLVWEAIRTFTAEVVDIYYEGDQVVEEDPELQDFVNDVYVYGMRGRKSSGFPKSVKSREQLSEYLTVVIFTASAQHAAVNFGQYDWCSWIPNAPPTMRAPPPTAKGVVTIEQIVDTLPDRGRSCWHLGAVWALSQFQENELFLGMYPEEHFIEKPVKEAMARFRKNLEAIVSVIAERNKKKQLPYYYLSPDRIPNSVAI
Test: 5-Lipoxygenase inhibition in human PBML stimulated with A 23187, LTB4 measured by EIA
Type: cell-based
Source text: Methods employed in this example were adapted from the scientific literature to maximize reliability and reproducibility. […] 110-13 (2000).
In this study, the 5-LOX source was human peripheral blood mononuclear cells (PBMNC) and the substrate was arachidonic acid having a general reaction of: arachidonic acid→5-LOX→5-HPETE→LTB4. Human peripheral blood mononuclear leukocytes (PBML) were isolated through a Ficoll-Paque density gradient. The inhibiting agent was processed Morinda citrifolia puree juice concentrate. Morinda citrifolia was pre-incubated with PBML (5×10^6 cell/ml) in HBSS buffer pH 7.4 at 37° C. for 15 minutes. […] Following neutralization with NaOH and centrifugation, the supernatant LTB4 is measured using an EIA kit.
The supernatant sample was utilized in same assay and protocols as outlined in Example One above, wherein the brown substance obtained was substituted for Morinda citrifolia puree juice.

For `CC(Cc1ccc(O)c(O)c1)C(C)Cc1ccc(O)c(O)c1` (centres unmarked) [NDGA, nordihydroguaretic acid], the Product (0.03 uM) was 3608.3 pg/well and 3403.4 pg/well, the Product (0.1 uM) was 2433.3 pg/well and the Product (0.3 uM) was 1083.1 pg/well and 1106.1 pg/well. For the same compound, the Product (1 uM) was 233.7 pg/well and 217.9 pg/well and the Product (3 uM) was 134.9 pg/well and 94.3 pg/well.
